Experimental data as given in PMC10920834, “Synthesis, anticancer activity, and molecular docking of half-sandwich iron(II) cyclopentadienyl complexes with maleimide and phosphine or phosphite ligands” (Scientific Reports, 2024).

Key:
Type in all cases: cell-based, human
[1] = tested on: PBM cells; experiment: Cell viability resazurin assay, PBM cells; details: for viability of PBM cells relative to control: ± SD
Source text: Peripheral blood mononuclear (PBM) cells were isolated from a leukocyte-buffy coat collected from the blood of healthy, non-smoking donors at the Blood Bank in Lodz, Poland. The study protocol received approval from the Committee for Research on Human Subjects of the University of Lodz (17/KBBN-UŁ/III/2019). The initial step of isolation process involved mixing buffy coats with PBS in a 1:1 ratio. Subsequently, the mixture was centrifuged using a density gradient of Lymphosep (Cytogen, Zgierz, Poland) at 2200 RPM for 20 min, employing the lowest values for acceleration and deceleration. PBM cells were collected and washed three times by centrifugation with 1 × PBS. Following isolation, the cells were suspended in RPMI 1640 medium.
(§1) Firstly, resazurin salt powder was dissolved in sterile 1 × PBS. Cells were then seeded on the 96-well plates in the count of 1 × 10^4 in the case of HL-60 cells and of 5 × 10^4 for PBM cells and of 5 × 10^3 for A549 cells per well. A549 cells were seeded 24 h prior to treatment with the complexes to allow cell adherence to 96-well plate. Iron(II) complexes were added to wells to obtain final concentrations of 0.5, 1, 2.5, 5, 10, 25, 50, 100 and 250 μM. Subsequently, plates were incubated at 37 °C in 5% CO2 for 2 h and 24 h. After that 10 μl of resazurin salt was added to each well and plates again were incubated in 37 °C in 5% CO2 for 2 h. Finally, fluorescence was measured with microplate reader Synergy HT (Bio-Tek Instruments, USA) using an excitation wavelength of 530/25 and an emission wavelength of 590/35 nm. The effects of iron(II) complexes were calculated as the percentage of control fluorescence. IC50 (half maximal inhibitory concentration) values were calculated using a website algorithm (https://www.aatbio.com/tools/ic50-calculator). All assays were performed in octuplicate.

[2] = tested on: HL-60 cells; experiment: Cell viability resazurin assay, HL-60 cells; details: for viability of HL-60 cells relative to control: ± SD
Procedure: (§2) The A549 (human non-small cell lung cancer) cell line was obtained from the American Type Culture Collection (ATCC) and cultured in Dulbecco's Modified Eagle Medium (DMEM) with 10% fetal bovine serum (FBS), 2 mM L-Glutamine, 25 mM HEPES and penicillin/streptomycin solution (100 U/ml and 100 µg/ml, respectively). The HL-60 (human promyelocytic leukemia) cell line was also obtained from the American Type Culture Collection (ATCC) and cultured in Iscove’s Modified Dulbecco's Medium (IMDM) with 15% fetal bovine serum (FBS), 2 mM L-Glutamine, 25 mM HEPES and penicillin/streptomycin solution (100 U/ml and 100 µg/ml, respectively). Both cell lines were cultured in flasks at 37 °C in 5% CO2 and sub-cultured every 2–3 days to maintain exponential growth.
as §1

[3] = tested on: A549 cells; experiment: Cell viability resazurin assay, A549 cells; details: for viability of A549 cells relative to control: ± SD
Procedure: as §2, §1

**Q.** O=C1C=CC(=O)[N-]1.[C-]#[O+].[Fe+2].c1cc[cH-]c1.c1ccc(P(c2ccccc2)c2ccccc2)cc1 [2a, CpFe(CO)(PPh3)(η^1-N-maleimidato)] was tested. Which “viability of PBM cells relative to control” value ([1]; 2 h incubation, 0.5 µM) did it give?
**A.** 98.55 ± 3.27%

**Q.** What about the “viability of PBM cells relative to control” value ([1]; 2 h incubation, 1 µM) of the same molecule?
**A.** 98.65 ± 4.06%

**Q.** And the “viability of PBM cells relative to control” value ([1]; 2 h incubation, 2.5 µM)?
**A.** 98.07 ± 3.18%

**Q.** And the “viability of PBM cells relative to control” value ([1]; 2 h incubation, 5 µM)?
**A.** 98.94 ± 2.53%

**Q.** What about the “viability of PBM cells relative to control” value ([1]; 2 h incubation, 10 µM) of the same molecule?
**A.** 101.13 ± 3.14%

**Q.** And the “viability of PBM cells relative to control” value ([1]; 2 h incubation, 25 µM)?
**A.** 102.46 ± 3.1%

**Q.** What about the “viability of PBM cells relative to control” value ([1]; 2 h incubation, 50 µM) of the same molecule?
**A.** 102.7 ± 2.19%

**Q.** And the “viability of PBM cells relative to control” value ([1]; 2 h incubation, 100 µM)?
**A.** 104.68 ± 1.6%

**Q.** And the “viability of PBM cells relative to control” value ([1]; 2 h incubation, 250 µM)?
**A.** 104.85 ± 1.37%

**Q.** What about the IC50 ([1]; 24 h incubation) of the same molecule?
**A.** 61.4 µM

**Q.** And the “viability of PBM cells relative to control” value ([1]; 24 h incubation, 0.5 µM)?
**A.** 101.47 ± 3.95%

**Q.** What about the “viability of PBM cells relative to control” value ([1]; 24 h incubation, 1 µM) of the same molecule?
**A.** 98.54 ± 1.78%

**Q.** What about the “viability of PBM cells relative to control” value ([1]; 24 h incubation, 2.5 µM) of the same molecule?
**A.** 101.97 ± 3.08%

**Q.** And the “viability of PBM cells relative to control” value ([1]; 24 h incubation, 5 µM)?
**A.** 102.32 ± 1.76%

**Q.** What about the “viability of PBM cells relative to control” value ([1]; 24 h incubation, 10 µM) of the same molecule?
**A.** 88.22 ± 1.4%

**Q.** What about the “viability of PBM cells relative to control” value ([1]; 24 h incubation, 25 µM) of the same molecule?
**A.** 64.32 ± 0.17%

**Q.** And the “viability of PBM cells relative to control” value ([1]; 24 h incubation, 50 µM)?
**A.** 55.37 ± 0.71%

**Q.** And the “viability of PBM cells relative to control” value ([1]; 24 h incubation, 100 µM)?
**A.** 38.14 ± 0.33%

**Q.** And the “viability of PBM cells relative to control” value ([1]; 24 h incubation, 250 µM)?
**A.** 32.79 ± 1.16%

**Q.** What about the “viability of HL-60 cells relative to control” value ([2]; 2 h incubation, 0.5 µM) of the same molecule?
**A.** 104.08 ± 2.11%

**Q.** What about the “viability of HL-60 cells relative to control” value ([2]; 2 h incubation, 1 µM) of the same molecule?
**A.** 103.34 ± 3.15%

**Q.** And the “viability of HL-60 cells relative to control” value ([2]; 2 h incubation, 2.5 µM)?
**A.** 103.43 ± 2.81%

**Q.** And the “viability of HL-60 cells relative to control” value ([2]; 2 h incubation, 5 µM)?
**A.** 108.69 ± 1.98%

**Q.** What about the “viability of HL-60 cells relative to control” value ([2]; 2 h incubation, 10 µM) of the same molecule?
**A.** 115.82 ± 2.26%

**Q.** What about the “viability of HL-60 cells relative to control” value ([2]; 2 h incubation, 25 µM) of the same molecule?
**A.** 120.78 ± 3.7%

**Q.** And the “viability of HL-60 cells relative to control” value ([2]; 2 h incubation, 50 µM)?
**A.** 118.68 ± 5.5%

**Q.** And the “viability of HL-60 cells relative to control” value ([2]; 2 h incubation, 100 µM)?
**A.** 116.98 ± 3.65%

**Q.** And the “viability of HL-60 cells relative to control” value ([2]; 2 h incubation, 250 µM)?
**A.** 113.31 ± 3.08%

**Q.** And the IC50 ([2]; 24 h incubation)?
**A.** 14.8 µM

**Q.** And the “viability of HL-60 cells relative to control” value ([2]; 24 h incubation, 0.5 µM)?
**A.** 103.09 ± 2.54%

**Q.** What about the “viability of HL-60 cells relative to control” value ([2]; 24 h incubation, 1 µM) of the same molecule?
**A.** 104.21 ± 1.11%

**Q.** And the “viability of HL-60 cells relative to control” value ([2]; 24 h incubation, 2.5 µM)?
**A.** 100.69 ± 4.9%

**Q.** What about the “viability of HL-60 cells relative to control” value ([2]; 24 h incubation, 5 µM) of the same molecule?
**A.** 79.99 ± 2.5%

**Q.** What about the “viability of HL-60 cells relative to control” value ([2]; 24 h incubation, 10 µM) of the same molecule?
**A.** 52.57 ± 0.94%

**Q.** What about the “viability of HL-60 cells relative to control” value ([2]; 24 h incubation, 25 µM) of the same molecule?
**A.** 15.3 ± 1.21%

**Q.** And the “viability of HL-60 cells relative to control” value ([2]; 24 h incubation, 50 µM)?
**A.** 10.1 ± 0.23%

**Q.** And the “viability of HL-60 cells relative to control” value ([2]; 24 h incubation, 100 µM)?
**A.** 10.31 ± 0.23%

**Q.** What about the “viability of HL-60 cells relative to control” value ([2]; 24 h incubation, 250 µM) of the same molecule?
**A.** 8.4 ± 0.12%

**Q.** What about the “viability of A549 cells relative to control” value ([3]; 2 h incubation, 0.5 µM) of the same molecule?
**A.** 84.75 ± 11.62%

**Q.** And the “viability of A549 cells relative to control” value ([3]; 2 h incubation, 1 µM)?
**A.** 71.98 ± 10.47%

**Q.** What about the “viability of A549 cells relative to control” value ([3]; 2 h incubation, 2.5 µM) of the same molecule?
**A.** 67.99 ± 8.45%

**Q.** And the “viability of A549 cells relative to control” value ([3]; 2 h incubation, 5 µM)?
**A.** 63.83 ± 8.57%

**Q.** And the “viability of A549 cells relative to control” value ([3]; 2 h incubation, 10 µM)?
**A.** 64.49 ± 7.71%

**Q.** And the “viability of A549 cells relative to control” value ([3]; 2 h incubation, 25 µM)?
**A.** 64.05 ± 10.66%

**Q.** What about the “viability of A549 cells relative to control” value ([3]; 2 h incubation, 50 µM) of the same molecule?
**A.** 71.32 ± 8.08%

**Q.** And the “viability of A549 cells relative to control” value ([3]; 2 h incubation, 100 µM)?
**A.** 68.25 ± 7.97%

**Q.** And the “viability of A549 cells relative to control” value ([3]; 2 h incubation, 250 µM)?
**A.** 57.40 ± 11.79%

**Q.** And the IC50 ([3]; 24 h incubation)?
**A.** > 250 µM

**Q.** And the “cytotoxicity against A549 cells, in words” value ([3]; 24 h incubation)?
**A.** did not show cytotoxicity

**Q.** And the “viability of A549 cells relative to control” value ([3]; 24 h incubation, 0.5 µM)?
**A.** 73.24 ± 14.30%

**Q.** And the “viability of A549 cells relative to control” value ([3]; 24 h incubation, 1 µM)?
**A.** 63.60 ± 12.84%

**Q.** And the “viability of A549 cells relative to control” value ([3]; 24 h incubation, 2.5 µM)?
**A.** 68.69 ± 13.05%

**Q.** What about the “viability of A549 cells relative to control” value ([3]; 24 h incubation, 5 µM) of the same molecule?
**A.** 65.32 ± 9.49%

**Q.** What about the “viability of A549 cells relative to control” value ([3]; 24 h incubation, 10 µM) of the same molecule?
**A.** 114.65 ± 23.41%

**Q.** And the “viability of A549 cells relative to control” value ([3]; 24 h incubation, 25 µM)?
**A.** 117.99 ± 19.59%

**Q.** What about the “viability of A549 cells relative to control” value ([3]; 24 h incubation, 50 µM) of the same molecule?
**A.** 105.46 ± 17.32%

**Q.** And the “viability of A549 cells relative to control” value ([3]; 24 h incubation, 100 µM)?
**A.** 120.77 ± 9.93%

**Q.** What about the “viability of A549 cells relative to control” value ([3]; 24 h incubation, 250 µM) of the same molecule?
**A.** 90.11 ± 9.87%

**Q.** And the “A549 cell viability, increase with increasing concentrations to” value ([3]; 24 h incubation, concentration not given)?
**A.** 120%
